Data: US12435072B2, “Compounds” (Vicore Pharma AB, priority 2019, dated 2025)
pIC50: −log10 of the molar value.

Experiments:
CYP1A = molecular target: T1, CYP1A (Homo sapiens, UniProt P05177); assay: CYP inhibition in human liver microsomes, CYP1A; type: in vitro ADME; conditions: probe phenacetin, substrate phenacetin, read-out: CYP1A Inh %
T1 construct: incubated with human liver microsomes; tissue Eurofins ITEMG232; host or cells: human liver microsomes
T1 sequence (P05177 1-516): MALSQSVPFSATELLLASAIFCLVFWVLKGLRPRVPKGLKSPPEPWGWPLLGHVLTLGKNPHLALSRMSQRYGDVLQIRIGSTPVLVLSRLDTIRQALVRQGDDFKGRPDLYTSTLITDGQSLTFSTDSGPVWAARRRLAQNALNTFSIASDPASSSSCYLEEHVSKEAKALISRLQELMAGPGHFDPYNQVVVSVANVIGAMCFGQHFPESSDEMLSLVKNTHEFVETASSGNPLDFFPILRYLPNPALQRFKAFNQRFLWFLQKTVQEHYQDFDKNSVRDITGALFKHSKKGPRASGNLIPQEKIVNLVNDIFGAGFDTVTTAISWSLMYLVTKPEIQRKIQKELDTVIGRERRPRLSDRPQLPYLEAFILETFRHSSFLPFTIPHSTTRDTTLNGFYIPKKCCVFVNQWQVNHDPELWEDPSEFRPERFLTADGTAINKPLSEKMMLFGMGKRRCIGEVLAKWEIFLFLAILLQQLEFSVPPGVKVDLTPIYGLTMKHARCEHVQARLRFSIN
Description: (§1) The following substrates were used: CYP1A phenacetin, CYP2B6 bupropion, CYP2C8 paclitaxel and amodiaquine, CYP2C9 diclofenac, CYP2C19 omeprazole, CYP2D6 dextromethorphan, CYP3A midazolam and testosterone. At the end of the incubation, the formation of metabolite was monitored by HPLC-MS/MS as the peak area response.

[1] = molecular target: T2, human recombinant AT2 receptor (Homo sapiens, UniProt P50052); assay: Binding to AT2 receptor, radiometric scintillation assay (Eurofins); conditions: ligand 125I CGP 42112A, tested at 1, 10, 100 and 1000 nM
T2 construct: purchased Eurofins ITEM26
T2 sequence (P50052 1-363): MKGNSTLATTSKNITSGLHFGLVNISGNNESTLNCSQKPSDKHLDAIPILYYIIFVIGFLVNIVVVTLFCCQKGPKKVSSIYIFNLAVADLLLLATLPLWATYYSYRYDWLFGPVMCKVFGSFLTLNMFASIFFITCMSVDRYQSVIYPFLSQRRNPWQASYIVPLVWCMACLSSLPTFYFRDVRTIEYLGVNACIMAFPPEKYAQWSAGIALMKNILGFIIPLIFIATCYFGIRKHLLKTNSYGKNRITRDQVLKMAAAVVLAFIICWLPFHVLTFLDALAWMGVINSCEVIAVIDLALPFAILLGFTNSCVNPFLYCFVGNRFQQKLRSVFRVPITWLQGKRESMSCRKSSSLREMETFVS
Description: (§2) Compounds were evaluated for binding to the human recombinant AT2 and AT1 receptor according to Eurofins protocol ITEM26 and ITEM24 using a radiometric scintillation assay.

CYP2D6 = molecular target: T3, CYP2D6 (Homo sapiens, UniProt P10635); assay: CYP inhibition in human liver microsomes, CYP2D6; type: in vitro ADME; conditions: probe dextromethorphan, substrate dextromethorphan, read-out: CYP2D6 Inh %
T3 construct: incubated with human liver microsomes; tissue Eurofins ITEMG232; host or cells: human liver microsomes
T3 sequence (P10635 whole entry): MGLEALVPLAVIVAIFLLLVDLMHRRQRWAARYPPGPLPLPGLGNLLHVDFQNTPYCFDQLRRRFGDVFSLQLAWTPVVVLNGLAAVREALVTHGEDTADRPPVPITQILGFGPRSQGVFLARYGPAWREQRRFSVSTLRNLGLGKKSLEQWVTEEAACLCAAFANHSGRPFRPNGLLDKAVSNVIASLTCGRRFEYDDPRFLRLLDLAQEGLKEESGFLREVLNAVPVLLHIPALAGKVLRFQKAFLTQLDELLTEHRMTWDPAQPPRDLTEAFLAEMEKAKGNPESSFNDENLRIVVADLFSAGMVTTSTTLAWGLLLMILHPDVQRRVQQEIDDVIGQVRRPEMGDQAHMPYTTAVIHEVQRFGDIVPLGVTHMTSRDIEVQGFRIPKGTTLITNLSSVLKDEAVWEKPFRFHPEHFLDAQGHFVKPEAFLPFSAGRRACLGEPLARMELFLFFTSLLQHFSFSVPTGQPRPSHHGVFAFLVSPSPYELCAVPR
How it was run: (§3)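 For CYP2D6 inhibition, dextromethorphan was the substrate; diclofenac served for CYP2C9, while CYP2C8 activity was followed with paclitaxel and amodiaquine. Formation of each metabolite at incubation end was recorded as HPLC-MS/MS peak area.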

CYP3A4 = CYP3A4 (Homo sapiens, UniProt P08684); assay: CYP inhibition in human liver microsomes, CYP3A4 (midazolam); type: in vitro ADME; design: incubated with human liver microsomes; tissue Eurofins ITEMG232; host or cells: human liver microsomes; conditions: probe midazolam, substrate midazolam, read-out: CYP3A4 midazolam Inh %
Sequence of CYP3A4 (P08684 whole entry): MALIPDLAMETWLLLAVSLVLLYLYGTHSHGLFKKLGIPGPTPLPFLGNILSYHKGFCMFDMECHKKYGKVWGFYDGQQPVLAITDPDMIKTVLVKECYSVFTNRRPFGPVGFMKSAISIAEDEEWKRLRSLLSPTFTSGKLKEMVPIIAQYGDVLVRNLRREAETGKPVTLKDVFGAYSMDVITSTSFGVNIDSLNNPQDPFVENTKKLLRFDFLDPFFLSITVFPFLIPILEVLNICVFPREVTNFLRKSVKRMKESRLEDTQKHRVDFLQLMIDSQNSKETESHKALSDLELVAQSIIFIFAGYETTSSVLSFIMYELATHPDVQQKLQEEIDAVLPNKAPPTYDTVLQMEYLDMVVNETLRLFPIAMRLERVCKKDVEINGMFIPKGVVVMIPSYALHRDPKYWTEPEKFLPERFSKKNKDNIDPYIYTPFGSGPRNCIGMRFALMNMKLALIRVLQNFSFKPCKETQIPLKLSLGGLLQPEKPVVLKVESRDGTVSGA
Description: as §1

CYP2C19 = molecular target: T4, CYP2C19 (Homo sapiens, UniProt P33261); assay: CYP inhibition in human liver microsomes, CYP2C19; type: in vitro ADME; conditions: probe omeprazole, substrate omeprazole, read-out: CYP2C19 Inh %
T4 construct: incubated with human liver microsomes; tissue Eurofins ITEMG232; host or cells: human liver microsomes
T4 sequence (P33261 whole entry): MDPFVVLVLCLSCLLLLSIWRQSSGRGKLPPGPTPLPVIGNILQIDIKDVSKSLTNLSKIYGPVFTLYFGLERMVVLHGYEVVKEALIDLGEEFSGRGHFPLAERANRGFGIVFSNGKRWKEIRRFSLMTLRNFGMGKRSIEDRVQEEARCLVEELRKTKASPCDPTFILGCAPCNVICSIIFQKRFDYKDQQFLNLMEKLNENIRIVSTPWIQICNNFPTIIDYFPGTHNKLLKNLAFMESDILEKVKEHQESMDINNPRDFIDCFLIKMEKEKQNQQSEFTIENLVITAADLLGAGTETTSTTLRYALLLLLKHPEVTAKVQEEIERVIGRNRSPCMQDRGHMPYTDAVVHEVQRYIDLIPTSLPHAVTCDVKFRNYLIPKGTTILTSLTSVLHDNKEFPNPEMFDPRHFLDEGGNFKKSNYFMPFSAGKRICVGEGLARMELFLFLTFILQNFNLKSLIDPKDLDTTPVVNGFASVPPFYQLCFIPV
Description: as §1

CYP2C9 = CYP2C9 (Homo sapiens, UniProt P11712); assay: CYP inhibition in human liver microsomes, CYP2C9; type: in vitro ADME; design: incubated with human liver microsomes; tissue Eurofins ITEMG232; host or cells: human liver microsomes; conditions: probe diclofenac, substrate diclofenac, read-out: CYP2C9 Inh %
Sequence of CYP2C9 (P11712 whole entry): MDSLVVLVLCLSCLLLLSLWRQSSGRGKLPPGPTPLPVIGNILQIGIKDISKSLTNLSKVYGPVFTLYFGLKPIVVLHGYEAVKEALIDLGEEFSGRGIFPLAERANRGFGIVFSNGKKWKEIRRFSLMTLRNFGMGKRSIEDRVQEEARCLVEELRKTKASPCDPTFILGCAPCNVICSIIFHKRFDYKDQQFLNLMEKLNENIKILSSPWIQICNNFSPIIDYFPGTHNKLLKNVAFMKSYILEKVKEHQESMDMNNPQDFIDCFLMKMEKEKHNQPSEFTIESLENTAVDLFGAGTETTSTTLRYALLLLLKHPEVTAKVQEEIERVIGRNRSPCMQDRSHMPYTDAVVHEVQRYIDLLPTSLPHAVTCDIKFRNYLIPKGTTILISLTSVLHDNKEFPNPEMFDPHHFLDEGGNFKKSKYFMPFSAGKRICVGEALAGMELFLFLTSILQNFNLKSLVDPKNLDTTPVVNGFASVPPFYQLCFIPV
How it was run: as §3

CYP2C8 = molecular target: T5, CYP2C8 (Homo sapiens, UniProt P10632); assay: CYP inhibition in human liver microsomes, CYP2C8; type: in vitro ADME; conditions: probe paclitaxel and amodiaquine, substrate paclitaxel and amodiaquine, read-out: CYP2C8 Inh %
T5 construct: incubated with human liver microsomes; tissue Eurofins ITEMG232; host or cells: human liver microsomes
T5 sequence (P10632 1-490): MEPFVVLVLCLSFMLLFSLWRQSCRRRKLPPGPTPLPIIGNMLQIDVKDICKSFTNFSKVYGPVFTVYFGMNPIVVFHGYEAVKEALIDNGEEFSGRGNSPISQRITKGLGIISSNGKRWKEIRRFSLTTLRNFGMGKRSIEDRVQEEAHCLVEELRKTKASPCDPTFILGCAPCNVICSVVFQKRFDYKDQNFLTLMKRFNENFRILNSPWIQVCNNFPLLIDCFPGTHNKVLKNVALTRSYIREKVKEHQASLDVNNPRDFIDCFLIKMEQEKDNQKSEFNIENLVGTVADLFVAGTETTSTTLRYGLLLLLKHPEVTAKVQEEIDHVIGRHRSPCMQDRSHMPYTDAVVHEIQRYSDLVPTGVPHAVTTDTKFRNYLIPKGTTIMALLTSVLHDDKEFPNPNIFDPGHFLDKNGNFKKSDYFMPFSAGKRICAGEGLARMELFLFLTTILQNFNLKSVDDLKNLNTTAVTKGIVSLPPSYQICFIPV
How it was run: as §3

[2] = molecular target: T6, human recombinant AT1 receptor (Homo sapiens, UniProt P30556); assay: Binding to AT1 receptor, radiometric scintillation assay (Eurofins); conditions: ligand 125I(sar1,Ile8)-AT-II, tested at 1 and 10 μM
T6 construct: purchased Eurofins ITEM24
T6 sequence (P30556 1-359): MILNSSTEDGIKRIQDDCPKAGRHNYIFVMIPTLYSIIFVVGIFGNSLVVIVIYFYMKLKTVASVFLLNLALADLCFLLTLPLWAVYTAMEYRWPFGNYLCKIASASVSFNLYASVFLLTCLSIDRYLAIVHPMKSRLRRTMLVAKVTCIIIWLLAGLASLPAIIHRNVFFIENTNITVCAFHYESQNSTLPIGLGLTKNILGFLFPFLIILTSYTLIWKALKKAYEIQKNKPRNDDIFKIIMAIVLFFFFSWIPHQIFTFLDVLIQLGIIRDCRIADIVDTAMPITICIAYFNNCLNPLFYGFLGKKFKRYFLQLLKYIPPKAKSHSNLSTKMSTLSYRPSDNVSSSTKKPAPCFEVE
Description: as §2

Cc1nccn1Cc1ccc(-c2cc(CC(C)C)sc2S(=O)(=O)NC(=O)NCCCC(F)(F)F)cc1 [Example 5, 3-(5-isobutyl-3-{p-[(2-Methyl-1H-imidazol-1-yl)methyl]phenyl}-2-thienylsulfonyl)-1-(4,4,4-trifluorobutyl)-urea]
inhibition at 10 µM (CYP1A): 7.3% | pIC50 [1]: 7.83 | inhibition at 10 µM (CYP2D6): 13.2% | inhibition at 10 µM (CYP3A4): 26.7% | inhibition at 10 µM (CYP2C19): 50.4% | inhibition at 10 µM (CYP2C9): 27.9% | inhibition at 10 µM (CYP2C8): 49.3% | pIC50 [2]: < 5.00
